Reference: publication PMC8400955 (Pharmaceuticals, 2021)
Where “and” joins values, the source holds several entries; their conditions need not be identical. Identical values can stand only once. Entries after “also recorded” stand apart in the source; their conditions may differ. Like-named read-outs stand apart in the source and are kept apart here.

Assays:
[1] = biological target: CYP3A4 (Homo sapiens, UniProt P08684); assay: CYP inhibition in human liver microsomes, CYP3A4; type: in vitro ADME; set-up: 2D6, and 3A4) in human liver microsomes (0.2 mg/mL) in the presence of NADPH; from tissue; host or cells: human liver microsomes; settings: HLM
CYP3A4, sequence (P08684 whole entry): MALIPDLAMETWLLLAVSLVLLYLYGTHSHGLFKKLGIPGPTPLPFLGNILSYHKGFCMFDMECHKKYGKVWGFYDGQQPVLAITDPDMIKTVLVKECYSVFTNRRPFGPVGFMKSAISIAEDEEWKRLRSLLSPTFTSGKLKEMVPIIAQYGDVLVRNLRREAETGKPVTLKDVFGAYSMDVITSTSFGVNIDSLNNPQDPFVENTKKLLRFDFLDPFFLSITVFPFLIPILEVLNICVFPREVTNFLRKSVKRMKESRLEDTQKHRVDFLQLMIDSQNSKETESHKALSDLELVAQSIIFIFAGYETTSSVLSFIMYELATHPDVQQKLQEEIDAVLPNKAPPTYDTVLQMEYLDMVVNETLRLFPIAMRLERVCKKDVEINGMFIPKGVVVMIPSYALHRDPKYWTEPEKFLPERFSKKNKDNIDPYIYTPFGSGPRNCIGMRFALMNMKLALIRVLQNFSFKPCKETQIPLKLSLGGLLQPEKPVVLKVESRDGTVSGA
Protocol: . The inhibition of CYP2B6 and 3A4 (when midazolam was used as the substrate) by ZB716 was not observed. The inhibitory potential of ZB716 on human CYP enzyme activities appears relatively low.
The final concentrations of ZB716 in the incubation system were 0, 0.05, 0.15, 0.5, 1.5, 5, and 15 µM (final organic solvent concentration ≤ 1%). […] . […] The concentrations of the isoform-specific metabolites derived from marker substrates were measured by UPLC–MS/MS. The IC50 values were calculated from the percentages of the rate of the metabolite formation relative to non-inhibited controls vs. the concentrations of ZB716 or positive control inhibitors. All incubations were performed in triplicate. The mean of the enzyme activity (% of non-inhibited control) for each concentration was plotted against the log inhibitor concentration, and fitted to an IC50 curve.

[2] = test system: human liver microsomes; assay: ZB716 remaining in human liver microsomes with and without CYP-specific chemical inhibitors; settings: HLM
Protocol: Bactosomes prepared from E. coli that heterologously expressed individual human CYP isoforms together with human CYP reductase were obtained from CYPEX LTD (Scotland, UK), and stored at −80 °C prior to use. […] Timepoints were taken at 0, 5, 10, 15, 20, and 30 min. Substrate disappearance was used to calculate intrinsic clearance (Clint) and half-life (t1/2). All incubations were performed in triplicate. […] The chemical inhibitors for CYP1A2, 2A6, 2B6, 2C8, 2C9, 2C19, 2D6, and 3A4 were furafylline, tranylcypromine, ticlopidine, montelukast, sulfaphenazole, N-3-benzylnirvanol, quinidine, and ketoconazole, respectively. Timepoints were collected at 0, 15, 30, 45, and 60 min, and the remaining percentage of the parent drug at each timepoint was calculated (the calculation details are available in the Supplementary Materials). All incubations were performed in triplicate.
The slope, k, was determined by linear regression of the natural logarithm of percent parent disappearance vs. incubation time curve. Peak areas for test article and internal standard were determined from extracted ion chromatograms. The peak area ratio was used to calculated for the results.
The half-life value (t1/2 rCYPi) was determined from the slope value:
Conversion of the t1/2 rCYPi (in min) into the intrinsic clearance (Clint rCYPi in μL/min/pmol) was done using the following equation:
1.3.2 For inhibition ratio (%) (Liver microsomes with and without inhibitors) The slope value, k, was determined by linear regression of the natural logarithm of the remaining percentage of the parent drug vs. incubation time curve. If the turnover was not significant (T-test with p<0.05 was not obtained) and the percentage remaining at last time point was ≥ 80%, the k value was

[3] = 4-week repeat-dose toxicity/TK study in dogs; type: in vivo, beagle dogs; settings: for AUC(0-t) / Cmax / Tmax: beagle, dog, plasma, po
Protocol: The TK of ZB716 was investigated in a 4-week repeat-dose toxicity study in dogs. Groups of dogs (n = 3/sex/group) were orally administered ZB716 (5% EtOH, 15% PG, 5% Solutol, and 75% of 40% HP-β-CD in DI water) at dose levels of 25, 100, and 200 mg/kg/day for 4 weeks. The plasma concentration of ZB716 was measured at various times up through to 24 h post-dose on days 1 and 28. […] The lower exposure in females given 200 mg/kg/day on day 1 was likely due to emesis noted in all females in this group.
Four-to-six-week-old Sprague Dawley rats (Crl: CD (SD)) (SPF/VAF) were purchased from Beijing Vital River Laboratory Animal Technology, Co. Ltd.). Six-month-old beagle dogs were purchased from Beijing Marshall Biotechnology Co. Ltd. Animals were quarantined/acclimated for 2–6 weeks prior to dose initiation. Both Sprague Dawley rats and beagle dogs were given oral administration of ZB716 (20% PG, 5% Solutol, and 75% of 40% HP-β-CD in water) at different dose levels. After treatment with the test articles, whole blood was collected from each study animal by puncture of the tail vein (0.4 mL of whole blood from rats) and/or the peripheral vein (0.6 mL of whole blood from dogs) into tubes containing K2EDTA at each timepoint: pre-dose, and 0.5, 1, 2, 4, 8, and 24 h post-dose. The plasma samples were divided into 2 aliquots (approximately equal in volume) and stored frozen at −75 ± 15 °C within 2 h of the collection until analysis at Pharmaron, China.
The stock solution of ZB716 (5.0 mg/mL) and ZB716-d6 (1 mg/mL) in ACN:DI Water = 1:1 was prepared and stored at −20 ± 5 °C. The desired serial concentrations of working reference analyte solutions were achieved by diluting a stock analyte solution with 50% acetonitrile (0.1% formic acid) in water solution. The bioanalytical LC–MS/MS method was validated for quantitative determination of ZB716 in Sprague Dawley rat plasma and beagle dog plasma, with acceptable selectivity, sensitivity, calibration curve, precision, and accuracy. This method is applicable for the determination of ZB716 in Sprague Dawley rat plasma and beagle dog plasma, with a lower limit of quantification of 20.0 ng/mL, and an upper limit of quantification of 10,000 ng/mL.
Five microliters of diluted supernatant was injected into the LC–MS/MS system (Shimadzu LC30AD HPLC system with a SynergiTM 4 μm Fusion-RP 80 Å (50 × 2 mm) column using gradient elution and a Triple Quad 5500 mass spectrometer) for quantitative analysis. The mobile phases used were 0.1% formic acid in deionized water and 0.1% formic acid in acetonitrile. The pharmacokinetic parameters T1/2 (the biological half-life), Cmax (maximal concentration), Tmax (time at which Cmax is observed), and AUC (area under the plasma concentration–time curve) were calculated from the plasma concentration versus time data using WinNonlin (Phoenix^TM, version 8.1, Mountain View, CA, USA). All PK studies were conducted by Pharmaron in Beijing, China.

[4] = 2 µM ZB716, with CYP1A2 inhibitor Furafylline
[5] = 2 µM ZB716, with CYP2A6 inhibitor Tranylcypromine
[6] = 2 µM ZB716, with CYP2B6 inhibitor Ticlopidine
[7] = 2 µM ZB716, with CYP2C8 inhibitor Montelukast
[8] = 2 µM ZB716, with CYP2C9 inhibitor Sulfaphenazole
[9] = 2 µM ZB716, with CYP2C19 inhibitor N-3-benzylnirvanol
[10] = 2 µM ZB716, with CYP2D6 inhibitor Quinidine
[11] = 2 µM ZB716, with CYP3A inhibitor Ketoconazole
[12] = female, 25 mg/kg/day, day 1, PO 25 mg/kg/day, F
[13] = female, 25 mg/kg/day, day 28, PO 25 mg/kg/day, F
[14] = female, 100 mg/kg/day, day 1, PO 100 mg/kg/day, F
[15] = female, 100 mg/kg/day, day 28, PO 100 mg/kg/day, F
[16] = female, 200 mg/kg/day, day 1, PO 200 mg/kg/day, F
[17] = female, 200 mg/kg/day, day 28, PO 200 mg/kg/day, F
[18] = male, 25 mg/kg/day, day 1, PO 25 mg/kg/day, M
[19] = male, 25 mg/kg/day, day 28, PO 25 mg/kg/day, M
[20] = male, 100 mg/kg/day, day 1, PO 100 mg/kg/day, M
[21] = male, 100 mg/kg/day, day 28, PO 100 mg/kg/day, M
[22] = male, 200 mg/kg/day, day 1, PO 200 mg/kg/day, M
[23] = male, 200 mg/kg/day, day 28, PO 200 mg/kg/day, M

For `C[C@]12CC[C@@H]3c4ccc(B(O)O)cc4C[C@@H](CCCCCCCCC[S+]([O-])CCCC(F)(F)C(F)(F)F)[C@H]3[C@@H]1CC[C@@H]2O` (some centres unmarked) [ZB716, fulvestrant-3-boronic acid], the IC50 ([1]; CYP3A4-M, marker substrate Midazolam) was “not observed; also recorded: No Inhibition”, the IC50 ([1]; CYP3A4-T, marker substrate Testosterone, read-out: IC50) was 11.2 µM and the Inhibition % ([2]; 2 µM ZB716, Without Inhibitor) was 0.00%. For the same compound, the “Remaining Percentage (%) at 15 min” value ([2]; 2 µM ZB716, Without Inhibitor) was 18.7 ± 1.2%, the “Remaining Percentage (%) at 60 min” value ([2]; 2 µM ZB716, Without Inhibitor) was 5.74 ± 0.52% and the Inhibition % [2, 4] was −48.9%. For the same compound, the “Remaining Percentage (%) at 15 min” value [2, 4] was 8.24 ± 0.80%, the “Remaining Percentage (%) at 60 min” value [2, 4] was 1.43 ± 0.51% and the Inhibition % [2, 5] was −14.4%. For the same compound, the “Remaining Percentage (%) at 15 min” value [2, 5] was 14.8 ± 2.5%, the “Remaining Percentage (%) at 60 min” value [2, 5] was 5.24 ± 2.31% and the Inhibition % [2, 6] was −9.46%. For the same compound, the “Remaining Percentage (%) at 15 min” value [2, 6] was 15.9 ± 0.8%, the “Remaining Percentage (%) at 60 min” value [2, 6] was 2.09 ± 0.23% and the Inhibition % [2, 7] was −15.1%. The “Remaining Percentage (%) at 15 min” value [2, 7] was 14.6 ± 2.4%, the “Remaining Percentage (%) at 60 min” value [2, 7] was 3.41 ± 0.30% and the Inhibition % [2, 8] was −31.8%. For the same compound, the “Remaining Percentage (%) at 15 min” value [2, 8] was 10.9 ± 0.1%, the “Remaining Percentage (%) at 60 min” value [2, 8] was 2.31 ± 0.18% and the Inhibition % [2, 9] was −22.5%. For the same compound, the “Remaining Percentage (%) at 15 min” value [2, 9] was 12.8 ± 1.2%, the “Remaining Percentage (%) at 60 min” value [2, 9] was 3.10 ± 0.44% and the Inhibition % [2, 10] was 74.7%. For the same compound, the “Remaining Percentage (%) at 15 min” value [2, 10] was 65.6% and 65.6 ± 6.0%, the Inhibition % [2, 11] was 88.2% and the “Remaining Percentage (%) at 15 min” value [2, 11] was 74.4% and 74.4 ± 5.8%. The “Remaining Percentage (%) at 60 min” value [2, 11] was 43.4 ± 2.8%, the AUC(0-t) [3, 12] was 3880 ng·h/mL and the Cmax [3, 12] was 772 ng/mL. The Tmax [3, 12] was 1 h, the AUC(0-t) [3, 13] was 8000 ng·h/mL and the Cmax [3, 13] was 1590 ng/mL. For the same compound, the Tmax [3, 13] was 1 h, the AUC(0-t) [3, 14] was 4490 ng·h/mL and the Cmax [3, 14] was 997 ng/mL. For the same compound, the Tmax [3, 14] was 1 h, the AUC(0-t) [3, 15] was 9650 ng·h/mL and the Cmax [3, 15] was 1870 ng/mL. For the same compound, the Tmax [3, 15] was 2 h, the AUC(0-t) [3, 16] was 2720 ng·h/mL and the Cmax [3, 16] was 583 ng/mL. The Tmax [3, 16] was 2 h, the AUC(0-t) [3, 17] was 14900 ng·h/mL and the Cmax [3, 17] was 1810 ng/mL. It also gave a Tmax [3, 17] of 2 h, an AUC(0-t) [3, 18] of 1980 ng·h/mL and a Cmax [3, 18] of 691 ng/mL. For the same compound, the Tmax [3, 18] was 0.5 h, the AUC(0-t) [3, 19] was 4330 ng·h/mL and the Cmax [3, 19] was 1390 ng/mL. It also gave a Tmax [3, 19] of 1 h, an AUC(0-t) [3, 20] of 4570 ng·h/mL and a Cmax [3, 20] of 1400 ng/mL. For the same compound, the Tmax [3, 20] was 1 h, the AUC(0-t) [3, 21] was 12400 ng·h/mL and the Cmax [3, 21] was 3340 ng/mL. For the same compound, the Tmax [3, 21] was 2 h, the AUC(0-t) [3, 22] was 7880 ng·h/mL and the Cmax [3, 22] was 1040 ng/mL. It also gave a Tmax [3, 22] of 2 h, an AUC(0-t) [3, 23] of 11000 ng·h/mL and a Cmax [3, 23] of 2130 ng/mL. For the same compound, the Tmax [3, 23] was 2 h and the tolerability ([3]; oral once daily, doses up to 200 mg/kg/day for 28 consecutive days) was “tolerated”.
